One molecule from article PMC8370248, “Key Metabolic Enzymes Involved in Remdesivir Activation in Human Lung Cells” (Antimicrobial Agents and Chemotherapy, 2021) can be followed below.

This data set concerns the target T1, CES2 (Homo sapiens, UniProt O00748).
T1 construct: purchased Corning Incorporated (Corning, NY); host or cells: baculovirus-infected insect cells (microsomal fraction, Supersomes)
T1 sequence (O00748 27-559): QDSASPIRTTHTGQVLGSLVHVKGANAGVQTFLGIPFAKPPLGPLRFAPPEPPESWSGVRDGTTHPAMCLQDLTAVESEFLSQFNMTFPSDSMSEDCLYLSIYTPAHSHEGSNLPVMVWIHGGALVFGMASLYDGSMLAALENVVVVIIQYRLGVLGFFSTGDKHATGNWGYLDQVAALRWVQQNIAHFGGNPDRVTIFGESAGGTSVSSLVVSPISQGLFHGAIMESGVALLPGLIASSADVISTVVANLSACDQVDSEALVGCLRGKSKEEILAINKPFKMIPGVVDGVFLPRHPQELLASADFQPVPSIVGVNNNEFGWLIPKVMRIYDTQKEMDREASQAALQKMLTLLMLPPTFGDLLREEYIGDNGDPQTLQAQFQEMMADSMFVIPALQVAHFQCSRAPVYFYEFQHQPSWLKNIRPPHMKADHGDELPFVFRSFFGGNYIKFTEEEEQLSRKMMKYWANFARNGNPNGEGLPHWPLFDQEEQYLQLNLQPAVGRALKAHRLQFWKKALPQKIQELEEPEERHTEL
In words: CES2-catalyzed hydrolysis of RDV and control (substrate disappearance, LC-MS). Type of data set: in vitro ADME. As to conditions: for half-life at 1 μM: human, CES2 Supersomes (protein-enriched subcellular fraction). On the procedure:
The catalytic activity of carboxylesterase 1b (CES1b), carboxylesterase 1c (CES1c), CES2, and CatA toward RDV hydrolysis was measured using protein-enriched subcellular fraction (CES isozymes) or recombinant proteins (CatA). The reaction rates were determined by monitoring the disappearance of RDV using a liquid chromatography-mass spectrometry (LC-MS) method.
RDV or positive-control substrates (oseltamivir for CES1 or procaine for CES2) were incubated with individual Supersome preparations (final CES concentration, 1.5 mg/ml) in 0.1 M potassium phosphate buffer (pH 7.4) at 37°C. Substrates were added to a final concentration of 1 μM to initiate the reaction. The final incubation volume was 250 μl. Aliquots were removed after incubation for 0, 10, 30, 60, and 120 min. The reactions were stopped by the addition of the quench solution containing the LC-MS internal standard (IS) (labetalol). Following protein precipitation and centrifugation, 150 μl of supernatant was dried down and reconstituted with 250 μl water. All samples were analyzed by an LC-MS, and the analyte/internal standard peak area ratio (PAR) values were used for quantification. Disappearance of RDV or positive-control compounds was monitored over the incubation time period. Three experiments were conducted with two replicates in each experiment, and data are reported as averages from the three experiments.
In all studies apart from those with CES1 and CatA with enzyme inhibitors, samples (10-μl aliquots) were injected with a Thermo Scientific autosampler. The LC instrumentation consisted of a Thermo Scientific Dionex UltiMate 3000 RS pump, and the LC column was a Waters Acquity UPLC BEH C18 (1.7 μm particle size, 2.1 by 50 mm). Mobile phases A and B were water 99.9% (vol/vol) containing 0.1% (vol/vol) formic acid, and acetonitrile 99.9% (vol/vol) containing 0.1% (vol/vol) formic acid, respectively, pumped at 0.2 ml/minute. Elution was achieved by a series of linear gradients over 2.33 min followed by reequilibration for 2.57 min. The MS instrument was a Thermo Q Exactive Hybrid Quadrupole-Orbitrap operating in positive or negative ionization mode as appropriate. This was calibrated on a weekly basis, and data were processed with GMSU 8.4.66 software by Gubbs Inc. (Alpharetta, GA). Mass tolerance of 5 ppm was used.

Each structure is given as a SMILES string. Where two headings read alike, the source gives them in different places. Where only a bound is given, the exact number is not on record here.

As for `CCC(CC)COC(=O)[C@H](C)N[P@](=O)(OC[C@H]1O[C@@](C#N)(c2ccc3c(N)ncnn23)[C@H](O)[C@@H]1O)Oc1ccccc1` [RDV, Remdesivir], for the setting “1 μM substrate, CES 1.5 mg/ml, pH 7.4, 37°C”, the “Activity for amidate ester cleavage, CES2” value is reported as 2.8 ± 2.6 × 10^−4 nmol/min/mg. Moreover, the half-life at 1 μM runs as follows: (pH 7.4, 1 μM substrate, CES 1.5 mg/ml, pH 7.4, 37°C, read-out: t1/2, CES2 (converted)) over 16.7 h; (pH 7.4, as stated in text, read-out: half-life, CES2) over 16 h.
